From patent US12195482B1 (Arcus Biosciences, Inc., priority 2022, dated 2025)
pIC50: −log10 of the molar value.

Molecular target: T1, Axl (Homo sapiens, UniProt P30530)
T1 sequence (P30530 26-894): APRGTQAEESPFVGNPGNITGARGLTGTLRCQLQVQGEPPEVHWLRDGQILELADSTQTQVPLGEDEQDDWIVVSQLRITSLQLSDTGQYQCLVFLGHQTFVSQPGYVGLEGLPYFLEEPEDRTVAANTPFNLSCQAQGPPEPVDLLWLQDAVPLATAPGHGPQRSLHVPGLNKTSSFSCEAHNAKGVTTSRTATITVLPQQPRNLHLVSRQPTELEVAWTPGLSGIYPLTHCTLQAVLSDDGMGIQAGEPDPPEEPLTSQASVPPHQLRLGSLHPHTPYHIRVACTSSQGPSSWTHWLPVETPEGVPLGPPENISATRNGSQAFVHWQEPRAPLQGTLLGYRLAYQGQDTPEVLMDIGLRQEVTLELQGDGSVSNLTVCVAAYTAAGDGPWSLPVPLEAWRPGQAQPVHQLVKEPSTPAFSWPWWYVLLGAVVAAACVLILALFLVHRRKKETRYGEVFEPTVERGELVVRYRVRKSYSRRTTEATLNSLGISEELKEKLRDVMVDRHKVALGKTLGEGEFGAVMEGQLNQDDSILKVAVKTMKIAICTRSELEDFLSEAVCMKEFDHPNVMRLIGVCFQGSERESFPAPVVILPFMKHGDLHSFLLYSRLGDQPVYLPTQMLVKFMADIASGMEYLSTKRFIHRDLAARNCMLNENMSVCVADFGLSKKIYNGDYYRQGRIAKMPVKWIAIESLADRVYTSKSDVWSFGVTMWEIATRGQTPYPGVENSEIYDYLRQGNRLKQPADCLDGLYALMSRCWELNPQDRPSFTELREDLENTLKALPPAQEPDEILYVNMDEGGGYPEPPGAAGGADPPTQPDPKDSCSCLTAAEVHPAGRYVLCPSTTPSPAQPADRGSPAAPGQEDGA
Experiment: Axl NanoBRET intracellular kinase assay (intracellular binding, K-5 tracer displacement)
Parameters: host or cells: HEK-293
Details: HEK-293 cells transfected with Axl-NanoLuc, 0.35 μM K-5 NanoBRET tracer; read-out: Cell Binding AXL
Procedure: Measuring Intracellular Binding of Axl Inhibitors
Axl NanoBRET™ intracellular kinase assay (Promega, N2540) was performed according to manufacturer's recommendation. In brief, HEK-293 cells are transiently transfected with Ax1-NanoLuc fusion vector (Promega, NV1071), utilizing Fugene HD transfection reagent (Promega, E2311) a day before experiment following manufacturer's recommendation.
The day of the assay, the cells were collected and resuspended in Opti-MEM media (ThermoFisher, 31985070) at 2e5 cells/mL concentration. Testing compounds were serial diluted and dispensed into a white 384 well polystyrene plate at 200 nL in 100% DMSO. 40 μL of resuspended cells is then added per well for a final condition of 8K cells/well with 0.5% DMSO. After one-hour compound pre-incubation at 37° C. and 5% CO2, cells were further incubated with 0.35 μM K-5 NanoBRET tracer for two-hours at 37° C. and 5% CO2. […] of 3× substrate plus Inhibitor solution was prepared according to kits manual and added to the cells followed by a 30 second pulse centrifugation spin. The plate was then immediately read utilizing an Envision (Perkin Elmer) plate reader. The BRET signal is measured by taking the ratio of the emissions reading at 610 nm and 450 nm. Compound binding is based on the decrease BRET signal caused by the displacement of the K-5 tracer. […] ICso value of compounds was determined by 4-parameter non-linear regression fitting of percent activity in GraphPad Prism software.

pIC50 | SMILES
> 7.00 | c1ccc(-n2cc(-c3n[nH]c4ncc(-c5ccc6c(c5)CC[C@@H](N5C7COCC5C7)CC6)cc34)cn2)nc1 [Example 168, 6-[(7S)-2-{3-[1-(Pyridin-2-yl)-1H-pyrazol-4-yl]-1H-pyrazolo[3,4-b]pyridin-5-yl}-6,7,8,9-tetrahydro-5H-benzo[7]annulen-7-yl]-3-oxa-6-azabicyclo[3.1.1]heptane]
> 7.00 | Cn1cnnc1-c1ccc(-c2n[nH]c3ncc(-c4ccc5c(c4)CC[C@@H](N4C6COCC4C6)CC5)cc23)cc1 [Example 169, 6-[(7S)-2-{3-[4-(4-Methyl-4H-1,2,4-triazol-3-yl)phenyl]-1H-pyrazolo[3,4-b]pyridin-5-yl}-6,7,8,9-tetrahydro-5H-benzo[7]annulen-7-yl]-3-oxa-6-azabicyclo[3.1.1]heptane]
> 7.00 | CN(C)C(=O)c1ccccc1-c1ccc(-c2c[nH]c3ncc(-c4ccc5c(c4)CC[C@@H](N4C6COCC4C6)CC5)cc23)cn1 [Example 170, N,N-Dimethyl-2-(5-{5-[(7S)-7-{3-oxa-6-azabicyclo[3.1.1]heptan-6-yl}-6,7,8,9-tetrahydro-5H-benzo[7]annulen-2-yl]-1H-pyrrolo[2,3-b]pyridin-3-yl}pyridin-2-yl)benzamide]
> 7.00 | O=C(c1cccnc1-c1ccc(-c2c[nH]c3ncc(-c4ccc5c(c4)CC[C@@H](N4C6COCC4C6)CC5)cc23)cc1)N1CCCC1 [Example 171, 6-[(7S)-2-(3-{4-[3-(Pyrrolidine-1-carbonyl)pyridin-2-yl]phenyl}-1H-pyrrolo[2,3-b]pyridin-5-yl)-6,7,8,9-tetrahydro-5H-benzo[7]annulen-7-yl]-3-oxa-6-azabicyclo[3.1.1]heptane]
> 7.00 | Cc1cccnc1-c1ccc(-c2c[nH]c3ncc(-c4ccc5c(c4)CC[C@@](C)(N4CCC[C@H]4C)CC5)cc23)cc1 [Example 172, 3-Methyl-2-(4-{5-[(7S)-7-methyl-7-[(2R)-2-methylpyrrolidin-1-yl]-6,7,8,9-tetrahydro-5H-benzo[7]annulen-2-yl]-1H-pyrrolo[2,3-b]pyridin-3-yl}phenyl)pyridine]
> 7.00 | Cc1cccnc1-c1ccc(-c2c[nH]c3ncc(-c4ccc5c(c4)CC[C@@H](N4CCCC4)CC5)cc23)cc1 [Example 173, 3-Methyl-2-(4-{5-[(7S)-7-(pyrrolidin-1-yl)-6,7,8,9-tetrahydro-5H-benzo[7]annulen-2-yl]-1H-pyrrolo[2,3-b]pyridin-3-yl}phenyl)pyridine]
> 7.00 | Cc1cncnc1-c1ccc(-c2n[nH]c3ncc(-c4ccc5c(c4)CC[C@@H](N4C6COCC4C6)CC5)cc23)cc1 [Example 174, 6-[(7S)-2-{3-[4-(5-Methylpyrimidin-4-yl)phenyl]-1H-pyrazolo[3,4-b]pyridin-5-yl}-6,7,8,9-tetrahydro-5H-benzo[7]annulen-7-yl]-3-oxa-6-azabicyclo[3.1.1]heptane]
> 7.00 | Cc1nccnc1-c1ccc(-c2n[nH]c3ncc(-c4ccc5c(c4)CC[C@@H](N4C6COCC4C6)CC5)cc23)cc1 [Example 175, 6-[(7S)-2-{3-[4-(3-Methylpyrazin-2-yl)phenyl]-1H-pyrazolo[3,4-b]pyridin-5-yl}-6,7,8,9-tetrahydro-5H-benzo[7]annulen-7-yl]-3-oxa-6-azabicyclo[3.1.1]heptane]
> 7.00 | Cc1ccnnc1-c1ccc(-c2n[nH]c3ncc(-c4ccc5c(c4)CC[C@@H](N4C6COCC4C6)CC5)cc23)cc1 [Example 176, 6-[(7S)-2-{3-[4-(4-Methylpyridazin-3-yl)phenyl]-1H-pyrazolo[3,4-b]pyridin-5-yl}-6,7,8,9-tetrahydro-5H-benzo[7]annulen-7-yl]-3-oxa-6-azabicyclo[3.1.1]heptane]
